Patent publication US4207308A, “Process for purifying iodinated bile acid conjugates” (priority 1977, dated 1980)
Blank lines part the entries; values can stand above or below the molecule they belong to.

Experiments:
Ab 927 [1] = test system: Ab 927
Ab 927 [2] = test: Radioimmunoassay cross-reactivity / displacement of cholylglycyl-125I-histamine tracer (Specificity of Tracer and Antibody)
[3] = test system: antibodies from rabbits (anti BSA-cholylglycine conjugate), Ab 927; test: Antibody titer curves using cholylglycyl-125I-histamine (or 3H-cholylglycine) tracer; format: binding, rabbit
Method: Young adult male New Zealand white rabbits were immunized at multiple sites on the back at bi-weekly intervals using 1.0 ml of BSA-cholylglycine conjugate (50 μg) emulsified with an equal volume of Freund's adjuvant. Serum was harvested every 2 weeks beginning one month after the initial immunization. […] 1 mg bovine gamma globulin was included in each tube. […] The supernate (bound) was decanted into another tube and both the charcoal (free) and supernate (bound) tubes were counted in a γ-spectrometer (Elscint). Results were expressed as the bound/free (B/F) ratio. A standard curve was constructed and unknowns were quantitated from a standard curve run with each assay. Antibodies from six different rabbits were produced and tested.

Molecule: C[C@H](CCC(=O)O)[C@H]1CC[C@H]2[C@@H]3CC[C@@H]4C[C@H](O)CC[C@]4(C)[C@H]3CC[C@]12C [Lithocholic acid]
activity (Ab 927 [1]): 2%

Molecule: C[C@H](CCC(=O)NCC(=O)NCCc1c[nH]cn1)[C@H]1CC[C@H]2[C@@H]3[C@H](O)C[C@@H]4C[C@H](O)CC[C@]4(C)[C@H]3C[C@H](O)[C@]12C [cholylglycylhistamine]
Amount required for displacement relative to other bile salts (fold less) (Ab 927 [2]; FIG. 4, less than other bile salts): approximately 10 fold
affinity (in words) (Ab 927 [2]; explanation for sensitivity not rising with titer): greater affinity

Non-specific binding ([3]; CPM in supernate without antibody, unchanged as long as 6 months after iodination): 2-4%
binding of tracer ([3]; corresponds to B/F 14.2, 1:100 dilution): 93%
Molecule: Cholylglycyl-^125 I-histamine [cholylglycyl-125I-histamine]
initial B/F (bound/free ratio) ([3]; 1:100 dilution, approximately 3000 CPM cholylglycyl-125I-histamine, four antibodies): 10.5 to 14.2
specificity (in words) (Ab 927 [2]): maintain a specificity toward the conjugated bile salts, particularly cholate and chenodeoxycholate conjugates
